Measurements as given in patent US20150133516A1, “Methods and Compositions for Treating ADHD” (priority 2013, published 2015).

Assays:
[1] = system: spontaneously hypertensive rats (SHR); test: delayed gratification response paradigm in SHR animal model of ADHD; assay type: in vivo, rat; details: 5, 10, 25 or 50 mg/kg over twenty-one days
Description: In this study, spontaneously hypertensive rats (SHR) are used as an animal model for ADHD. The SHR animal model is described in Russell et al., 2000, Behavioral Brain Research, 117: 69-74; Russell, 2001, Metab. Brain Dis., 16: 143-149; and Sagvolden et al., 1992, Behav. Neural Biol., 58: 103-112. The study consists of two groups of rats: normal and SHR. Each group is further divided into two subgroups: placebo and AR08. The AR08 subgroup is further divided into four subgroups and each subgroup is administered 5, 10, 25, or 50 mg/kg of AR08. The AR08 is administered to the rats over a period of twenty-one days. The rats are from the normal and SHR groups are trained in the delayed gratification response paradigm as described in Charrier et al., 1996, Pharmacology and Biochemistry and Behavior, 54: 149-157. In this paradigm, rats learn to choose between five food pellets delivered after 30 seconds and one food pellet delivered after 5 seconds. Normal rats learn to choose the five food pellets delivered after 30 seconds at a higher frequency.

α2 receptors = test: receptor binding affinities / selectivity against other molecular targets
Procedure: (§1) The pharmacological activity and selectivity of these compounds can be determined using published test procedures. […] (See, e.g., The Alpha-2 Adrenergic Receptors, L. E. Limbird, ed., Humana Press, Clifton, N.J.) The following in vivo assays are typically conducted in rodents or other species. Central nervous system activity is determined by measuring locomotor activity as an index of sedation. (See, e.g., Spyraki, C. & H. Fibiger, “Clonidine-induced Sedation in Rats: Evidence for Mediation by Postsynaptic Alpha-2 Adrenoreceptors”, Journal of Neural Transmission, Vol. 54 (1982), pp. 153-163). Nasal decongestant activity is measured using rhinomanometry as an estimate of nasal airway resistance. […] Antiglaucoma activity is determined by measuring intraocular pressure. […] Antidiarrheal activity is determined by measuring the ability of the compounds to inhibit prostaglandin-induced diarrhea. […] Efficacy in treating irritable bowel syndrome is determined by measuring the ability of compounds to reduce the stress-induced increase in fecal output. […] Antiasthma activity is determined by measuring the effect of the compound on bronchoconstriction associated with pulmonary challenges such as inhaled antigens. […] Activity in cough is determined by measuring the number and latency of the cough response to respiratory challenges such as inhaled citric acid. […]

clinical = details: human, in vivo
α2 adrenergic receptors = test: alpha 2/alpha1 functional selectivity (in vitro functional potencies); assay type: biochemical
Procedure: as §1

SMILES	amount of time required by SHR rats to choose five food pellets delivered after 30 seconds at a higher frequency [1]	binding to targets other than α2 receptors (α2 receptors)	selectivity for the α2 adrenergic receptors (α2 receptors; versus a wide range of other molecular targets)	half-life (clinical) [min]	alpha 2/alpha1 functional selectivity (α2 adrenergic receptors)
Cc1c(N=C2NCCN2)cc(C#N)c2[nH]cnc12 [AR08, N-(4,5-Dihydro-1H-imidazol-2-yl)-7-cyano-4-methyl-1H-benzimidazol-5-amine acetate]	reduced				
Cc1c(N=C2NCCN2)cc(C#N)c2[nH]cnc12 [Compound I, N-(4,5-Dihydro-1H-imidazol-2-yl)-7-cyano-4-methyl-1H-benzimidazol-5-amine]		no relevant binding	highly selective	1560 to 2400	about 70 fold
